The test system of assay [1] is insulin signaling components. Kind of assay: IRS and Akt in liver, muscle and WAT of CONVR mice. The class given is in vivo, mouse. The protocol: (§1) An intraperitoneal glucose tolerance test (using 1 g glucose per kg body weight) was then performed after a 4 h fast. Blood glucose levels were measured from tail blood using HemoCue201+analyzer (HemoCue, Angelholm, Sweden). Liver and plasma samples were collected after a 4 h fast. Mice were under isoflurane anesthesia and killed by cervical dislocation. Fresh liver was taken and snap-frozen in liquid nitrogen and stored at −80° C. until protein extraction.
(§2) Snap-frozen liver and harvested cells were lysed in buffer containing 50 mM Tris-HCl (pH 7.4), 150 mM NaCl, 1 mM EDTA, 1 mM Na3VO4, 20 mM NaF, 10 mM glycerophosphate, 1 mM PMSF, 10% glycerol, 1% Triton X-100 and protease inhibitor cocktail. For immunoprecipitation, the cell lysates were obtained in 0.3% CHAPS-containing lysis buffer, sonicated and centrifuged at 20,000 g for 15 min at 4° C., and the supernatant was incubated with 20 μl of anti-FLAG beads (Sigma) at 4° C. for 4 h under gentle agitation.

Assay [2] concerns HEK293 cells. Kind of assay: Signaling in HEK293 cells (immunoblot). The class given is cell-based, human. The protocol:
as §2
HEK293 cells (ATCC CRL-1573) were grown and maintained in high-glucose (4.5 g/l glucose) DMEM with 10% (v/v) FBS. […] 24 h after transfection (with plasmids or siRNA as indicated), HEK293 cells cultured in poly-L-lysine-coated 60 mm dishes were rinsed twice with DMEM without FBS and incubated in serum-free DMEM for 18 h. HEK293 cells were then washed once with EBSS and incubated in EBSS for 1 h.
(In western blotting, separated proteins are transferred to a membrane and probed.)

In assay [3] the test system is CONVR mice. In words: Intraperitoneal glucose tolerance test in CONVR mice. Format: in vivo, mouse. The conditions noted are these: 100 μg i.p. twice per day for 3 days. The protocol: as §1

On to `O=C(O)CCc1cnc[nH]1` [imidazole propionate], for which the “basal Akt S473 phosphorylation in liver, muscle and WAT” value in assay [1] (3-day injection vs vehicle) is given as “higher”. The “IRS levels in liver, muscle or WAT” value in assay [1] (3-day injections) was “did not reduce”. In addition, the S6K1 phosphorylation entry in assay [2] (HEK293, 100 μM for 1 h) was “induced”. In addition, in assay [2] (HEK293, 8 h pretreatment), the “basal activation of Akt” value is reported as “increased” and the “responsiveness of Akt S473 to insulin” value is recorded as “reduced”. Moreover, in assay [2] (HEK293, absence of amino acids), the “lowest concentration with p62 phosphorylation activation” value worked out at 10 nM. For the same compound, in assay [2] (HEK293, absence of amino acids, 1 and 2 h), the p62 phosphorylation result was “concentration- and time-dependent increase”. Further, in assay [2] (HEK293, compared with amino acids), the Akt phosphorylation entry was “induced”. Further, the “time to mTORC1 activation” value in assay [2] (absence of amino acids) is not below 30 min. The “IRS1 S636/S639 phosphorylation” value in assay [2] (amino acid-deprived HEK293, 2 h) is reported as “induced”. Moreover, the IRS1 levels entry in assay [2] (amino acid-deprived HEK293, 8 h) was “dramatically reduced”. Further, the IRS1 protein levels entry in assay [2] (amino acid-deprived cells, up to 2 h) was “not reduced”. In addition, in assay [2] (presence of amino acids), the “time to S6K1 phosphorylation” value is on record as not above 30 min. In addition, in assay [3], the glucose tolerance result is reported as “impaired glucose tolerance”.

Source of the values: patent publication US20190369122A1, “METABOLIC DISORDERS” (priority 2016, published 2019).
